Results on seven compounds are retold here after patent US4324783A, “Antibacterial composition for medical use” (Toyama Chemical Co., Ltd., priority 1977, dated 1982).

What is called MIC is the lowest concentration that inhibits growth of the organism.

The test system of experiment [1] is Pseudomonas aeruginosa S-12 strain. As to the kind of experiment: Minimum inhibitory concentration. The experiment is classed as cell-based. As to conditions: S12STRAIN.
The test system of experiment [2] is Escherichia coli TK-3 strain. As to the kind of experiment: Minimum inhibitory concentration. In kind it is cell-based. The settings on record: TK3STRAIN.
For experiment [3], the system named is clinically isolated strains. As to the kind of experiment: Test Examples 1 to 3 with other β-lactamase-inhibiting penicillins or cephalosporins. The settings on record: in place of Methicillin or Cloxacillin. In kind it is cell-based. As to the method: (§1) Heart Infusion agar containing a prescribed amount of Methicillin sodium or T-1220 was inoculated with the test bacterium at a rate of about 10^8 cells/ml. After incubation for 18 hours at 37° C., the growth of the test bacterium was inspected.
The β-lactamase activity was assayed by the iodometric assay method at 30° C., following the procedure of Perret [C.J. Perret, "Iodometric Assay of Penicillinase," Nature, 174, 1012-1013 (1954)], except that a 0.1 molar phosphate buffer solution (pH 7.0) was used in place of the 0.2 molar phosphate buffer solution (pH 6.5). One unit of β-lactamase activity corresponds to the quantity of β-lactamase which decomposes 1 μmole/hour of T-1220 in a 0.1 molar phosphate buffer solution (pH 7.0) containing 8 m moles of the substrate.
A pathogenic bacterium was inoculated at a rate of about 10^8 cells/ml into a Heart Infusion broth containing T-1220 (200 μg/ml) alone, T-1220 (200 μg/ml) plus Methicillin sodium (200 μg/ml), T-1220 (200 μg/ml) plus Cloxacillin sodium (200 μg/ml), Methicillin sodium (200 μg/ml) alone, or Cloxacillin sodium (200 μg/ml) alone. The inoculated broth was incubated at 37° C. and the number of live cells in the culture broth was determined at predetermined time intervals.
The test results described in the foregoing Test Examples 1 to 3 are typical of the pharmacological activity of the antibacterial composition of this invention.

Experiment [4] concerns K. pneumoniae Y-53. As to the kind of experiment: Effect of combined use on experimental infection in mice (protection effect). The experiment is classed as in vivo, ICR mice infected with K. pneumoniae. As to conditions: K. pneumoniae Y-53, 1.0 × 10^7 cells/mouse intraperitoneal; subcutaneous, one and two hours after inoculation. From the text: (§2) Male mice (5 mice per group) of the ICR strain, 4 weeks of age, were peritoneally inoculated with the prescribed number of pathogenic bacteria suspended in 5% mucin. After one hour and two hours following the inoculation, test preparations shown in Table 4 were subcutaneously administered to examine the protection effect.

The subject of experiment [5] is Pseudomonas aeruginosa S-12 strain. As to the kind of experiment: Growth-inhibition test on clinically isolated strain (Heart Infusion agar, about 10^8 cells/ml, 18 hours at 37° C.). In kind it is cell-based. Set-up: key: (+) means that the test bacterium grew; (-) means that the test bacterium did not grow. The protocol:
as §1

Experiment [6] relates to Escherichia coli TK-3 strain. Described as above. In kind it is cell-based. Set-up: key: (+) means that the test bacterium grew; (-) means that the test bacterium did not grow. The protocol: as §1
Experiment [7] has as its system P. aeruginosa S-111. As to the kind of experiment: Effect of combined use on experimental infection in mice (protection effect). The experiment is classed as in vivo, ICR mice infected with P. aeruginosa. As to conditions: P. aeruginosa S-111, 1.6 × 10^6 cells/mouse intraperitoneal; subcutaneous, one and two hours after inoculation.
Source text: as §2

[8] abbreviates: T-1220 0 + methicillin sodium 50 μg/ml.
The mark [9] stands for this setting: T-1220 0 + methicillin sodium 100 μg/ml.
Where [10] appears, read: T-1220 0 + methicillin sodium 200 μg/ml.

As for `Cc1onc(-c2ccccc2Cl)c1C(=O)N[C@@H]1C(=O)N2[C@@H]1SC(C)(C)[C@@H]2C(=O)O` [Cloxacillin sodium], the MIC in experiment [1] and in experiment [2] was more than 3200 µg/mL each time.

As for `Cc1onc(-c2c(Cl)cccc2Cl)c1C(=O)N[C@@H]1C(=O)N2[C@@H]1SC(C)(C)[C@@H]2C(=O)O` [Dicloxacillin], the “results in the Test Examples when used as the β-lactamase-inhibiting penicillin or cephalosporin” value in experiment [3] is “results similar to those obtained with Methicillin and Cloxacillin”.

`COc1cccc(OC)c1C(=O)N[C@@H]1C(=O)N2[C@@H]1SC(C)(C)[C@@H]2C(=O)O` [Methicillin sodium]: the MIC in experiment [1] and in experiment [2] was more than 3200 µg/mL in each case. Besides, the “ED50 (protection effect)” value in experiment [4] and in experiment [7] was more than 50 mg/mouse throughout. Moreover, the “growth of the test bacterium” value in experiment [5] (T-1220 0 + methicillin sodium 3.13 μg/ml), in experiment [5] (T-1220 0 + methicillin sodium 6.25 μg/ml), in experiment [5] (T-1220 0 + methicillin sodium 12.5 μg/ml), in experiment [5] (T-1220 0 + methicillin sodium 25 μg/ml), in experiment [5] (setting [8]) and in experiment [5] (setting [9]) was “+” throughout. Further, the “growth of the test bacterium” value in experiment [5] (setting [10]), in experiment [6] (setting [8]), in experiment [6] (setting [9]), in experiment [6] (setting [10]), in experiment [6] (T-1220 0 + methicillin sodium 400 μg/ml) and in experiment [6] (T-1220 0 + methicillin sodium 800 μg/ml) was “+” in each case. In addition, the “growth of the test bacterium” value in experiment [6] (T-1220 0 + methicillin sodium 1600 μg/ml) and in experiment [6] (T-1220 0 + methicillin sodium 3200 μg/ml) was “+” in each case.

Take `CCN1CCN(C(=O)N[C@@H](C(=O)N[C@@H]2C(=O)N3[C@@H]2SC(C)(C)[C@@H]3C(=O)O)c2ccccc2)C(=O)C1=O` [T-1220, sodium 6-[D(-)-α-(4-ethyl-2,3-dioxo-1-piperazinylcarbonylamino)phenylacetamido]penicillanate]: the MIC in experiment [1] and in experiment [2] was more than 3200 µg/mL in each case. In addition, the “ED50 (protection effect)” value in experiment [4] and in experiment [7] was more than 50 mg/mouse each time. Further, the “growth of the test bacterium” value in experiment [5] (T-1220 50 μg/ml, methicillin sodium concentration not given) is “+”; in experiment [5] (T-1220 100 μg/ml, methicillin sodium concentration not given), “+”; in experiment [5] (T-1220 200 μg/ml, methicillin sodium concentration not given) it was “+”; in experiment [5] (T-1220 400 μg/ml, methicillin sodium concentration not given), “+”; in experiment [5] (T-1220 800 μg/ml, methicillin sodium concentration not given) it was “+”; in experiment [5] (T-1220 1600 μg/ml, methicillin sodium concentration not given), “+”. For the same compound, the “growth of the test bacterium” value is given as “+” in experiment [5] (T-1220 3200 μg/ml, methicillin sodium concentration not given); “+” in experiment [6] (T-1220 50 + methicillin sodium 0 μg/ml); “+” in experiment [6] (T-1220 100 + methicillin sodium 0 μg/ml); “+” in experiment [6] (T-1220 200 + methicillin sodium 0 μg/ml); “+” in experiment [6] (T-1220 400 + methicillin sodium 0 μg/ml); “+” in experiment [6] (T-1220 800 + methicillin sodium 0 μg/ml). In addition, the “growth of the test bacterium” value in experiment [6] (T-1220 1600 + methicillin sodium 0 μg/ml) and in experiment [6] (T-1220 3200 + methicillin sodium 0 μg/ml) was “+” throughout.

In the case of `CO[C@@]1(NC(=O)Cc2cccs2)C(=O)N2C(C(=O)O)=C(COC(N)=O)CS[C@@H]21` [Cefoxitin], in experiment [3], the “results in the Test Examples when used as the β-lactamase-inhibiting penicillin or cephalosporin” value is “results similar to those obtained with Methicillin and Cloxacillin”.

As to `Cc1onc(-c2ccccc2)c1C(=O)N[C@@H]1C(=O)N2[C@@H]1SC(C)(C)[C@@H]2C(=O)O` [Oxacillin], in experiment [3], the “results in the Test Examples when used as the β-lactamase-inhibiting penicillin or cephalosporin” value is “results similar to those obtained with Methicillin and Cloxacillin”.

With `Cc1onc(-c2c(F)cccc2Cl)c1C(=O)N[C@@H]1C(=O)N2[C@@H]1SC(C)(C)[C@@H]2C(=O)O` [Flucloxacillin], the “results in the Test Examples when used as the β-lactamase-inhibiting penicillin or cephalosporin” value in experiment [3] is “results similar to those obtained with Methicillin and Cloxacillin”.
